The test system of the experiment is PCA in rats. The experiment in a line: Passive cutaneous anaphylaxis (PCA) in rats, anti-allergic action, oral administration. The class given is in vivo, rat. The conditions noted are these: for ED50: Rattus norvegicus, dose which reduces diameter of color patch by 50% relative to non-medicated controls, read-out: Inhibition of PCA in rats, ED 50%; for ED50 / R.A. (relative activity) / times more active than the comparative compound Pirquinozol: oral; for R.A. (relative activity): Pirquinozol = 1.00. The method, then:
The anti-allergic action was tested on rats, using the passive cutaneous anaphylaxis (PCA) model.
Narcotized male rats (100 to 140 g) are sensitized by intradermal injection (into the shaved dorsal skin) of 0.1 ml of an ovalbumin antiserum. After a sensitization period of about 48 hours, the treatment (intraperitoneal or oral administration) is carried out with various dosages (10 animals/dose)of the test substances. 15-20 minutes after treatment, an antigen/Evans blue mixture (10 mg/kg of ovalbumin in 2% strength Evans blue solution) is injected intravenously into the test animals. 30 minutes later, the animals are sacrificed, the dorsal skin is removed and the diameter of the circular blue coloration is measured on the inner surface. The size of the color patches of untreated control animals can be standardized. Anti-allergic substances reduce the diameter of the color patch by an amount dependent on the dose. The ED 50% is quoted as the dose which reduces the diameter of the color patch by 50% relative to that of non-medicated control animals. In addition to the anti-allergic action, the acute toxicity was determined for intraperitoneal administration, using groups of 2 NMRI mice, each weighing 20-26 g, and for oral administration, using groups of 2 Sprague-Dawley rats, each weighing 120-150 g. The LD 50 was determined on groups of 10 NMRI mice, each weighing 20-26 g, after intraperitoneal administration. The post-observation period was 14 days.

Molecules are shown by their SMILES.

As to `O=C(O)c1cc(=O)c2c(OCC(O)COc3cccc4oc(C(=O)O)cc(=O)c34)cccc2o1` [Cromolyne, reference compound], the ED50 is greater than 100 mg/kg. Also, the “activity in oral doses (in words)” value (oral doses of up to 100 mg/kg, PCA rats) is “inactive”.

Regarding `CCOC(=O)c1nc2c3ccccc3n(C)c(=O)n2n1` [Example 13, Ethyl 6-methyl-1,2,4-triazolo[1,5-c]quinazolin-5-one-2-carboxylate], the ED50 was 0.518 mg/kg. Also, the “R.A. (relative activity)” value (PCA rats) stood at 2.29.

As to `CCOC(=O)c1nc2c3ccccc3n(CC)c(=O)n2n1` [Example 14, Ethyl 6-ethyl-1,2,4-triazolo[1,5-c]quinazolin-5-one-2-carboxylate], the ED50 came to 0.707 mg/kg. In addition, the “R.A. (relative activity)” value (PCA rats) was determined as 1.68.

For `CCOC(=O)c1nc2c3cc(C)ccc3n(CC)c(=O)n2n1` [Example 17, Ethyl 6-ethyl-9-methyl-1,2,4-triazolo[1,5-c]quinazolin-5-one-2-carboxylate], the ED50 worked out at 0.271 mg/kg. For the same molecule, under “PCA rats”, the “times more active than the comparative compound Pirquinozol” value amounted to 4.4 times and the “R.A. (relative activity)” value stood at 4.39.

For the molecule `CCOC(=O)c1nc2c3cc(Cl)ccc3n(C)c(=O)n2n1` [Example 20, Ethyl 9-chloro-6-methyl-1,2,4-triazolo[1,5-c]quinazolin-5-one-2-carboxylate], the ED50 is 0.723 mg/kg. Moreover, the “R.A. (relative activity)” value (PCA rats) was found to be 1.64.

`CCOC(=O)c1nc2c3cc(C)ccc3n(C)c(=O)n2n1` [Example 25, Ethyl 6,9-dimethyl-1,2,4-triazolo[1,5-c]quinazolin-5-one-2-carboxylate]: the ED50 came out at 0.617 mg/kg. Moreover, the “R.A. (relative activity)” value (PCA rats) is 1.92.

Take `CCOC(=O)c1nc2c3cc(C)c(C)cc3n(C)c(=O)n2n1` [Example 27, Ethyl 6,8,9-trimethyl-1,2,4-triazolo[1,5-c]quinazolin-5-one-2-carboxylate]: the ED50 is 1 mg/kg. In addition, under “PCA rats”, the “times more active than the comparative compound Pirquinozol” value is given as 1.2 times and the “R.A. (relative activity)” value is 1.19.

As to `CCOC(=O)c1nc2c3cc(C)c(C)cc3n(CC)c(=O)n2n1` [Example 28, Ethyl 8,9-dimethyl-6-ethyl-1,2,4-triazolo[1,5-c]quinazolin-5-one-2-carboxylate], the ED50 was determined as 0.876 mg/kg. Further, the “R.A. (relative activity)” value (PCA rats) came to 1.36.

Turning to `O=c1[nH]c2ccccc2c2cc(CO)nn12` [Pirquinozol, reference compound], the ED50 was found to be 1.19 mg/kg. Besides, the “R.A. (relative activity)” value (PCA rats) was 1.00.

The values are drawn from patent US4463007A, “Triazoloquinazolinones, and compositions and methods for treating allergic disorders with them” (BASF Aktiengesellschaft, priority 1981, dated 1984).
